The values that follow come from ChEMBL document CHEMBL1201862, “PubChem BioAssay data set” (2004).

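Growth conditions: 96-well plates. Treatment: test compound, 48 hours, 5 concentrations. Analysis: linear interpolation between bracketing concentrations; unreached endpoints set to highest concentration. Abbreviation: GI50, concentration required for 50% inhibition of growth.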 The source made the active and inactive calls. Cut-off read from the data, not from the text of the source: active = GI50 up to about 1.1 µM and inactive = higher.

Among the test systems are OVCAR-4; A549; SK-MEL-28; EKVX; UACC-257; OVCAR-8; HOP-92; TK-10; U-251; SW-620; OVCAR-5; HOP-62; Malme-3M; UO-31; ACHN; SNB-19; K562; NCI-H226; SF-539; NCI-H23.
Common to all, as to assay: NCI tumour cell line growth inhibition, 48 h

In the case of `O=S(=O)(O)c1cc(/N=N/c2c(O)ccc3ccccc23)cc2c(S(=O)(=O)O)cccc12`, the GI50 in the assay with OVCAR-4, in the assay on A549, with SK-MEL-28, in the assay on EKVX, in the assay with UACC-257 and with OVCAR-8 was > 100 µM (inactive) each time. The GI50 with HOP-92, with TK-10, in the assay on U-251, in the assay with SW-620, with OVCAR-5 and with HOP-62 was > 100 µM (inactive) each time. Moreover, the GI50 with Malme-3M is 33.7 µM (inactive); in the assay on UO-31, > 100 µM (inactive); in the assay on ACHN, > 100 µM (inactive); in the assay on SNB-19 it was > 100 µM (inactive); in the assay on K562, > 100 µM (inactive); in the assay on NCI-H226 it was > 100 µM (inactive). Moreover, in the assay on SF-539, the GI50 was > 100 µM (inactive).
In the case of `COc1ccc(/C=C/c2cc(O)cc(OC3OC(CO)C(O)C(O)C3O)c2)cc1O` (stereo unspecified), the GI50 in the assay with OVCAR-4 is > 100 µM (inactive); in the assay with A549 it was 69.2 µM (inactive); in the assay on SK-MEL-28, > 100 µM (inactive); in the assay on EKVX, > 100 µM (inactive); in the assay on UACC-257, > 100 µM (inactive); in the assay with OVCAR-8, > 100 µM (inactive). The GI50 is > 100 µM (inactive) with HOP-92; > 100 µM (inactive) in the assay with TK-10; > 100 µM (inactive) in the assay on U-251; > 100 µM (inactive) in the assay with SW-620; 67.1 µM (inactive) in the assay with OVCAR-5; 37 µM (inactive) in the assay on HOP-62. In addition, the GI50 is 67.1 µM (inactive) with Malme-3M; 19.2 µM (inactive) with UO-31; 14.8 µM (inactive) in the assay with ACHN; > 100 µM (inactive) with SNB-19; 45.1 µM (inactive) in the assay with K562; > 100 µM (inactive) with NCI-H226. In addition, in the assay on SF-539, the GI50 is 57.1 µM (inactive).
Consider `COc1ccc(N2C(=O)C(Cl)C2c2cc3cc(Br)ccc3nc2Cl)cc1` (stereo unspecified), for which the GI50 is 4.36 µM (inactive) in the assay on OVCAR-4; 11 µM (inactive) in the assay on A549; 7.28 µM (inactive) in the assay on SK-MEL-28; 4.67 µM (inactive) with EKVX; 5.2 µM (inactive) in the assay with UACC-257; 13.4 µM (inactive) in the assay on OVCAR-8. The GI50 is 8.38 µM (inactive) in the assay with HOP-92; 5.98 µM (inactive) in the assay with NCI-H23; 7.52 µM (inactive) in the assay on TK-10; 5.55 µM (inactive) with SW-620; 7.96 µM (inactive) in the assay with OVCAR-5; 6.44 µM (inactive) in the assay on HOP-62. For the same compound, the GI50 in the assay with Malme-3M was 4.94 µM (inactive); in the assay with UO-31 it was 0.701 µM (active); with ACHN, 4.89 µM (inactive); with SNB-19 it was 9.93 µM (inactive); in the assay on K562, 7.24 µM (inactive); in the assay with NCI-H226, 5.62 µM (inactive). Also, in the assay with SF-539, the GI50 was 5.07 µM (inactive).
As to `Cc1nc2ccc(F)cc2c2c1CCO2`, the GI50 in the assay on OVCAR-4 is > 100 µM (inactive); in the assay with A549 it was > 100 µM (inactive); in the assay with SK-MEL-28 it was > 100 µM (inactive); in the assay on EKVX, 39.7 µM (inactive); in the assay on UACC-257 it was > 100 µM (inactive); in the assay on OVCAR-8, > 100 µM (inactive). Besides, the GI50 in the assay on HOP-92 was 78.7 µM (inactive); in the assay on NCI-H23, > 100 µM (inactive); in the assay on TK-10, > 100 µM (inactive); with U-251 it was 66.2 µM (inactive); in the assay with SW-620, > 100 µM (inactive); with OVCAR-5, > 100 µM (inactive). Also, the GI50 is > 100 µM (inactive) with Malme-3M; 92.3 µM (inactive) with UO-31; > 100 µM (inactive) with ACHN; > 100 µM (inactive) with SNB-19; 41.5 µM (inactive) in the assay with K562; > 100 µM (inactive) with NCI-H226. In the assay with SF-539, the GI50 was > 100 µM (inactive).
As for `COc1cc(OC)cc(Oc2nc3ccc(C(F)(F)F)cc3nc2-c2ccccc2)c1`, the GI50 with OVCAR-4, with A549, with SK-MEL-28, in the assay on EKVX, in the assay on UACC-257 and with OVCAR-8 was > 100 µM (inactive) in each case. For the same compound, the GI50 with HOP-92, with NCI-H23, with TK-10, in the assay with U-251, with SW-620 and in the assay on OVCAR-5 was > 100 µM (inactive) throughout. The GI50 in the assay on HOP-62, in the assay on Malme-3M, in the assay with UO-31, in the assay with ACHN, in the assay with K562 and in the assay on NCI-H226 was > 100 µM (inactive) each time. Moreover, in the assay on SF-539, the GI50 is > 100 µM (inactive).
`CCCNC(=O)OCc1c(COC(=O)NCCC)c(-c2ccc(Cl)c(Cl)c2)n2c1CCC2`: the GI50 in the assay on A549 was 6.61 µM (inactive); in the assay on EKVX, 11.2 µM (inactive); in the assay with UACC-257, 4.79 µM (inactive); in the assay with OVCAR-8, 4.36 µM (inactive); in the assay with HOP-92, 2.52 µM (inactive); with NCI-H23 it was 5.93 µM (inactive). Also, the GI50 is 1.86 µM (inactive) in the assay on TK-10; 4.98 µM (inactive) in the assay on U-251; 4.63 µM (inactive) in the assay on SW-620; 3.76 µM (inactive) in the assay with OVCAR-5; 6.01 µM (inactive) in the assay with HOP-62; 2.94 µM (inactive) in the assay on Malme-3M. Further, the GI50 is 2.86 µM (inactive) with UO-31; 2.01 µM (inactive) in the assay with ACHN; 8.93 µM (inactive) with SNB-19; 4.31 µM (inactive) with K562; 1.58 µM (inactive) in the assay on NCI-H226; 3 µM (inactive) in the assay with SF-539.
As for `COc1cc(C/C=C/c2ccccc2)c(OC)cc1O` [VIOLASTYRENE], the GI50 was 18 µM (inactive) in the assay with OVCAR-4; 43.9 µM (inactive) in the assay on A549; 18.7 µM (inactive) in the assay with SK-MEL-28; 18.1 µM (inactive) in the assay with EKVX; 29.4 µM (inactive) with UACC-257; 12.6 µM (inactive) with OVCAR-8. In addition, the GI50 is 15.4 µM (inactive) in the assay on HOP-92; 21.3 µM (inactive) in the assay with NCI-H23; 18.8 µM (inactive) with TK-10; 18.7 µM (inactive) in the assay on U-251; 20 µM (inactive) in the assay on SW-620; 24.7 µM (inactive) in the assay on OVCAR-5. For the same compound, the GI50 in the assay with Malme-3M is 22.6 µM (inactive); in the assay on UO-31 it was 16.8 µM (inactive); in the assay on ACHN it was 23.6 µM (inactive); in the assay on SNB-19, 30.5 µM (inactive); with K562 it was 15.6 µM (inactive); with NCI-H226, 24.5 µM (inactive). The GI50 in the assay with SF-539 was 17.9 µM (inactive).
As for `COC(=O)/C=C/c1ccc2c(c1)CC1(Cc3ccccc3C1)C2`, the GI50 with OVCAR-4 was > 100 µM (inactive); with A549, 0.0463 µM (active); in the assay with EKVX, 23.6 µM (inactive); in the assay on UACC-257, > 100 µM (inactive); in the assay with OVCAR-8, > 100 µM (inactive); with HOP-92 it was > 100 µM (inactive). The GI50 with NCI-H23 was 55.7 µM (inactive); in the assay with TK-10, > 100 µM (inactive); in the assay with U-251, > 100 µM (inactive); in the assay with OVCAR-5 it was > 100 µM (inactive); with HOP-62, > 100 µM (inactive); with Malme-3M, > 100 µM (inactive). The GI50 in the assay with UO-31 was > 100 µM (inactive); in the assay on ACHN it was > 100 µM (inactive); with K562 it was 37.5 µM (inactive); in the assay with NCI-H226, > 100 µM (inactive); in the assay on SF-539, > 100 µM (inactive).
As for `COc1cc(C(=C2SCCS2)c2nccc3cc(OC)c(OC)cc23)c([N+](=O)[O-])cc1OC`, the GI50 with A549 is 39.4 µM (inactive); in the assay on SK-MEL-28 it was > 100 µM (inactive); in the assay with EKVX it was 54 µM (inactive); in the assay on UACC-257, 34 µM (inactive); with OVCAR-8, > 100 µM (inactive); in the assay on HOP-92, 8.71 µM (inactive). Further, the GI50 with NCI-H23 is 40.8 µM (inactive); in the assay with TK-10, > 100 µM (inactive); with U-251, 64.7 µM (inactive); in the assay on SW-620, 62.1 µM (inactive); with OVCAR-5, > 100 µM (inactive); with HOP-62, > 100 µM (inactive). The GI50 was 74.3 µM (inactive) in the assay with Malme-3M; 27.2 µM (inactive) in the assay on UO-31; 29.9 µM (inactive) in the assay on ACHN; > 100 µM (inactive) in the assay with SNB-19; 9.42 µM (inactive) in the assay on K562; 80.4 µM (inactive) with NCI-H226. For the same compound, in the assay with SF-539, the GI50 is > 100 µM (inactive).
Consider `CC(=O)OCCOCn1cnc2c(Cl)nc(Cl)nc21`, for which the GI50 was 19.1 µM (inactive) in the assay with OVCAR-4; > 10 µM (inactive) in the assay with A549; 2.84 µM (inactive) in the assay on EKVX; 17.1 µM (inactive) in the assay with UACC-257; 20.8 µM (inactive) in the assay with OVCAR-8; 1.67 µM (inactive) in the assay with HOP-92. Besides, the GI50 was 18.7 µM (inactive) with NCI-H23; 39.4 µM (inactive) with TK-10; 15 µM (inactive) with U-251; 12.4 µM (inactive) with SW-620; 19.1 µM (inactive) with OVCAR-5; 17.7 µM (inactive) in the assay with HOP-62. For the same compound, the GI50 in the assay on Malme-3M is 15.8 µM (inactive); in the assay on UO-31, 21.2 µM (inactive); in the assay on ACHN, 16.5 µM (inactive); in the assay on SNB-19, 31.2 µM (inactive); with K562, 2.44 µM (inactive); with NCI-H226, 19.2 µM (inactive). The GI50 in the assay with SF-539 was > 10 µM (inactive).
Regarding `O=C(c1ccccc1)c1cccc(C(=O)c2ccccc2)c1`, the GI50 in the assay on OVCAR-4, with A549, with SK-MEL-28, in the assay on EKVX, in the assay on UACC-257 and in the assay on OVCAR-8 was > 100 µM (inactive) in each case. The GI50 with HOP-92 was 53 µM (inactive); with NCI-H23 it was 98.2 µM (inactive); with TK-10 it was > 100 µM (inactive); in the assay on U-251, > 100 µM (inactive); in the assay on SW-620, > 100 µM (inactive); with HOP-62, > 100 µM (inactive). Further, the GI50 with Malme-3M was 78.2 µM (inactive); in the assay on UO-31 it was 37.2 µM (inactive); in the assay with ACHN, > 100 µM (inactive); in the assay on SNB-19, > 100 µM (inactive); with K562, > 100 µM (inactive); in the assay on NCI-H226 it was 34.3 µM (inactive). For the same compound, the GI50 with SF-539 is > 100 µM (inactive).
